Tested on: 317291-083-R-J1-PDC complex spheroid growth
Experiment: Anticancer human tumor 317291-083-R-J1-PDC patient-derived soft tissue sarcoma cell line growth inhibition [Asc]
Settings: for IC50: curve of first compound; for viability, T/C: stronger effect = lower value
How it was run: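 Tumor cells were grown as complex spheroids with human endothelial cells (HUVEC) and human mesenchymal stem cells as stroma. Agents were tested alone and in combination, in half-log steps down from the clinical Cmax, or from 10 microM where Cmax was unknown.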
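Note: compound exposure lasted seven days after spheroids formed for three days.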
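Throughout, for viability, T/C: 100% = DMSO vehicle control wells.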

NC(=O)C(=Cn1cnc(-c2cc(C(F)(F)F)cc(C(F)(F)F)c2)n1)c1cncnc1 + CCN1C(C(=O)NC23CCC(C(=O)O)(CC2)CC3)C(c2cccc(Cl)c2F)C2(C(=O)Nc3cc(Cl)ccc32)C12CCCCC2
IC50 (second compound 0.00949 µM): 34.2 nM
IC50 (second compound 0.03 µM): 21.5 nM
IC50 (second compound 0.0949 µM): 23.8 nM
IC50 (second compound 0.3 µM): 24.3 nM
IC50 (second compound 0.949 µM): 23.6 nM
IC50 (second compound 3 µM): 18.2 nM
viability, T/C (second compound 0.00949 µM, first compound 0.000949 µM): 97.9%
viability, T/C (second compound 0.00949 µM, first compound 0.003 µM): 83.4%
viability, T/C (second compound 0.00949 µM, first compound 0.00949 µM): 79.2%
viability, T/C (second compound 0.00949 µM, first compound 0.03 µM): 57.7%
viability, T/C (second compound 0.00949 µM, first compound 0.0949 µM): 10%
viability, T/C (second compound 0.00949 µM, first compound 0.3 µM): 2.56%
viability, T/C (second compound 0.03 µM, first compound 0.000949 µM): 118%
viability, T/C (second compound 0.03 µM, first compound 0.003 µM): 87.6%
viability, T/C (second compound 0.03 µM, first compound 0.00949 µM): 84.8%
viability, T/C (second compound 0.03 µM, first compound 0.03 µM): 38.2%
viability, T/C (second compound 0.03 µM, first compound 0.0949 µM): 5.81%
viability, T/C (second compound 0.03 µM, first compound 0.3 µM): 2.23%
viability, T/C (second compound 0.0949 µM, first compound 0.000949 µM): 94.6%
viability, T/C (second compound 0.0949 µM, first compound 0.003 µM): 109%
viability, T/C (second compound 0.0949 µM, first compound 0.00949 µM): 72.4%
viability, T/C (second compound 0.0949 µM, first compound 0.03 µM): 46.4%
viability, T/C (second compound 0.0949 µM, first compound 0.0949 µM): 10.3%
viability, T/C (second compound 0.0949 µM, first compound 0.3 µM): 2.94%
viability, T/C (second compound 0.3 µM, first compound 0.000949 µM): 95.1%
viability, T/C (second compound 0.3 µM, first compound 0.003 µM): 106%
viability, T/C (second compound 0.3 µM, first compound 0.00949 µM): 74.6%
viability, T/C (second compound 0.3 µM, first compound 0.03 µM): 47.4%
viability, T/C (second compound 0.3 µM, first compound 0.0949 µM): 7.13%
viability, T/C (second compound 0.3 µM, first compound 0.3 µM): 2.81%
viability, T/C (second compound 0.949 µM, first compound 0.000949 µM): 110%
viability, T/C (second compound 0.949 µM, first compound 0.003 µM): 90.3%
viability, T/C (second compound 0.949 µM, first compound 0.00949 µM): 69.6%
viability, T/C (second compound 0.949 µM, first compound 0.03 µM): 55.6%
viability, T/C (second compound 0.949 µM, first compound 0.0949 µM): 4.34%
viability, T/C (second compound 0.949 µM, first compound 0.3 µM): 2.96%
viability, T/C (second compound 3 µM, first compound 0.000949 µM): 100%
viability, T/C (second compound 3 µM, first compound 0.003 µM): 87.2%
viability, T/C (second compound 3 µM, first compound 0.00949 µM): 76.8%
viability, T/C (second compound 3 µM, first compound 0.03 µM): 27.7%
viability, T/C (second compound 3 µM, first compound 0.0949 µM): 21.7%
viability, T/C (second compound 3 µM, first compound 0.3 µM): 2.15%

NC1CCC(NC2CC2c2ccccc2)CC1 (centres undefined) + CCN1C(C(=O)NC23CCC(C(=O)O)(CC2)CC3)C(c2cccc(Cl)c2F)C2(C(=O)Nc3cc(Cl)ccc32)C12CCCCC2
IC50 (second compound 0.00949 µM): > 100 nM
IC50 (second compound 0.03 µM): > 100 nM
IC50 (second compound 0.0949 µM): > 100 nM
IC50 (second compound 0.3 µM): > 100 nM
IC50 (second compound 0.949 µM): > 100 nM
IC50 (second compound 3 µM): > 100 nM
viability, T/C (second compound 0.00949 µM, first compound 0.000316 µM): 92.4%
viability, T/C (second compound 0.00949 µM, first compound 0.001 µM): 103%
viability, T/C (second compound 0.00949 µM, first compound 0.00316 µM): 96.6%
viability, T/C (second compound 0.00949 µM, first compound 0.01 µM): 97%
viability, T/C (second compound 0.00949 µM, first compound 0.0316 µM): 95.5%
viability, T/C (second compound 0.00949 µM, first compound 0.1 µM): 94.2%
viability, T/C (second compound 0.03 µM, first compound 0.000316 µM): 109%
viability, T/C (second compound 0.03 µM, first compound 0.001 µM): 100%
viability, T/C (second compound 0.03 µM, first compound 0.00316 µM): 106%
viability, T/C (second compound 0.03 µM, first compound 0.01 µM): 114%
viability, T/C (second compound 0.03 µM, first compound 0.0316 µM): 107%
viability, T/C (second compound 0.03 µM, first compound 0.1 µM): 94.2%
viability, T/C (second compound 0.0949 µM, first compound 0.000316 µM): 103%
viability, T/C (second compound 0.0949 µM, first compound 0.001 µM): 81.3%
viability, T/C (second compound 0.0949 µM, first compound 0.00316 µM): 87.6%
viability, T/C (second compound 0.0949 µM, first compound 0.01 µM): 95.7%
viability, T/C (second compound 0.0949 µM, first compound 0.0316 µM): 106%
viability, T/C (second compound 0.0949 µM, first compound 0.1 µM): 108%
viability, T/C (second compound 0.3 µM, first compound 0.000316 µM): 116%
viability, T/C (second compound 0.3 µM, first compound 0.001 µM): 108%
viability, T/C (second compound 0.3 µM, first compound 0.00316 µM): 98.9%
viability, T/C (second compound 0.3 µM, first compound 0.01 µM): 80.3%
viability, T/C (second compound 0.3 µM, first compound 0.0316 µM): 102%
viability, T/C (second compound 0.3 µM, first compound 0.1 µM): 111%
viability, T/C (second compound 0.949 µM, first compound 0.000316 µM): 98.9%
viability, T/C (second compound 0.949 µM, first compound 0.001 µM): 120%
viability, T/C (second compound 0.949 µM, first compound 0.00316 µM): 76.2%
viability, T/C (second compound 0.949 µM, first compound 0.01 µM): 93.8%
viability, T/C (second compound 0.949 µM, first compound 0.0316 µM): 97.6%
viability, T/C (second compound 0.949 µM, first compound 0.1 µM): 106%
viability, T/C (second compound 3 µM, first compound 0.000316 µM): 99.7%
viability, T/C (second compound 3 µM, first compound 0.001 µM): 107%
viability, T/C (second compound 3 µM, first compound 0.00316 µM): 81.5%
viability, T/C (second compound 3 µM, first compound 0.01 µM): 74.2%
viability, T/C (second compound 3 µM, first compound 0.0316 µM): 83.6%
viability, T/C (second compound 3 µM, first compound 0.1 µM): 74.3%
